Tests used:
[1] = Incubation of MPZ in human liver S9; format: in vitro ADME
Procedure: Initial experiment was conducted with S9 fractions from liver and intestine to assess the role of liver and intestinal enzymes in the metabolism of MPZ. The reaction mixture contained 2.5 μM MPZ, pooled human liver or intestine S9 fraction (1 mg/mL S9 protein), 100 mM KPi buffer (pH 7.4). The reaction mixture was pre-incubated for 3-5 min at 37° C. in a humidified incubator filled with 5% CO2 followed by the addition of NADPH (1 mM) to initiate the reaction. The reaction was incubated for 0 and 60 min. The total percentage of organic solvent in incubation mixture was <0.1%. The reactions were terminated by the addition of sample mixture of acetonitrile and ethanol (90:10, v/v). The positive control substrate, 7-EC, was incubated in triplicate in an identical manner as MPZ for S9 fractions.

Dog PK study = format: in vivo, beagle dogs
Procedure: The pharmacokinetics of metopimazine (parent) and metopimazine acid (metabolite) were evaluated in three male, beagle dogs following a single oral dose of 10 mg/kg metopimazine (free base). The dogs were obtained from Marshall BioResources (North Rose, NY). Animals were weighed prior to each dose administration for the purpose of dose calculation. Metopimazine was administered in size 13 gelatin capsules. Whole venous blood samples of approximately 1.0 mL were collected from a peripheral vein of all animals for determination of metopimazine and metopimazine acid. Samples were collected at the following timepoints: 0.25, 0.5, 1, 2, 4, 8, 12, and 24 hours after test article administration. All animals were sampled at each timepoint. Samples were collected in tubes containing K2EDTA and placed on ice until processed for plasma by centrifugation under refrigeration for at least ten minutes at 3000 rpm. After centrifugation, supernatant was removed and stored frozen in a −70° C. freezer until analyzed by LC-MS/MS.
(§1) An MRM LC-MS/MS method was developed for MPZ and metopimazine acid (MPZA) in rat, dog, and human plasma. The method was run in reverse phase in positive ion mode. […] D6-isotopically labeled internal standards were used for each analyte. The following m/z transitions were monitored: metopimazine 446.3→141.1 and metopimazine acid 447.2→142.1.
(§2) Noncompartmental Pharmacokinetics analysis was performed in Phoenix 64 Winnonlin version 8.1.

[2] = Incubation with HKM for FMO; format: in vitro ADME, human; conditions: HKM pH 8.4, NADPH, with/without methimazole, heat inactivation
Procedure: MPZ, at 1.0 and 10.0 μM, was incubated with HLM or HKM to determine the contribution of microsomal FMOs on the metabolism of MPZ. A reaction mixture containing KPi buffer (pH 8.4), HLM or HKM (0.5 mg/mL protein) and MPZ (1.0 and 10.0 μM) was pre-incubated for 3-5 minutes at 37° C. The reaction was initiated by the addition of NADPH into the reaction mixture. Reaction was conducted for 0 and 60 min. A positive control (benzydamine, 100 μM) was incubated in duplicate for 0 and 20 minutes. Parallel incubation was conducted by adding 1 mM methimazole, a non-specific FMO inhibitor, under identical conditions. Heat inactivated microsomes (50° C. for at least 5 minutes) was incubated under identical conditions negative control. All other procedures were the same as described previously.

[3] = test system: rhFMO1, rhFMO3, and rhFMO5; experiment: Incubation with recombinant FMO; format: in vitro ADME, human; conditions: 1 μM MPZ, pH 8.4
Procedure: Protein concentrations for all rFMO isoforms were 0.05 mg/mL. A positive control (benzydamine, 100 μM) was incubated for 20 minutes. […] All other procedures were the same as described previously. The negative control reactions were incubated absence of NADPH.

[4] = for Peak Area at Time 0 / Peak Area at Time 90 min: metopimazine incubation in human liver microsomes, full scan LC-MS
Procedure: For protein concentration optimization, MPZ at 1 μM was incubated with varying concentration of HLM proteins (0.1, 0.25, 0.5, and 1.0 mg/mL microsomal protein), 100 mM KPi buffer (pH 7.4). After pre-incubation for 3-5 minutes at 37° C., the reaction was initiated by the addition of NADPH (1 mM) for 60 minutes in triplicates.
For incubation time optimization, MPZ at 1 μM was incubated with pooled HLM (0.5 mg/mL microsomal protein) and 100 mM KPi buffer (pH 7.4). After pre-incubation for) for 3-5 minutes at 37° C., the reaction was initiated by the addition NADPH (1 mM) incubated for 0, 10, 20, 40, 60, and 90 minutes to determine the optimal incubation time (linear range). All metabolic reactions in this study were terminated by the addition of chilled organic solvent (acetonitrile:ethanol 90:10, v/v) containing internal standards, unless otherwise indicated.
LC separation conditions were developed for MPZ and its metabolites (MPZA and MPZS), 7 hydroxycoumarin, each metabolite of CYP probe substrate, benzydamine N oxide, and phthalazine. The LC MS/MS system consisted of a Shimadzu Nexera X2 LC-30 UPLC system (Shimadzu Corporation, Kyoto, Japan), and an API 4000 triple quadrupole mass spectrometer (SCIEX, Framingham, MA) was used for analysis. All analytes were analyzed using electrospray ionization (ESI) in positive ion mode except for 7-EC, which used negative ion mode. The LC-MS/MS system was controlled by Analyst software (version 1.6.1, SCIEX, Framingham, MA).
For each analytical method, a calibration curve was generated for the quantification of MPZ and its two metabolites (MPZA and MPZS). […] PAR was also used for all positive control compounds.
% parent remaining=(mean concentration or PAR at each sampling time point/mean concentration or PAR of time zero)×100

Rat PK study = format: in vivo, Sprague Dawley rats
Procedure: The pharmacokinetics of metopimazine (parent) and metopimazine acid (metabolite) were evaluated in male and female Sprague Dawley rats following a single oral dose of 45 mg/kg metopimazine (free base). Three animals per sex in each dose group were sampled at each timepoint after administration (0.25, 0.5, 1, 2, 4, 8, 12, and 24 hours). The rats (Rattus norvegicus) were obtained from Envigo RMS, Inc. (Indianapolis, IN) and were 2 months old. Animals were weighed prior to each dose administration for the purpose of dose calculation. Whole venous blood samples of approximately 0.5 mL were collected from a peripheral vein of animals for determination of exposure to metopimazine and metopimazine acid. Three animals per sex were sampled at each timepoint. Samples were collected in tubes containing K2EDTA with protease inhibitor cocktail (Sigma, #P8340, at ratio 1:100) and placed on ice until processed for plasma by centrifugation under refrigeration for at least ten minutes at 3000 rpm. After centrifugation, supernatant was removed and stored frozen in a −70° C. freezer until analyzed by LC-MS/MS.
as §1, §2

[5] = male, beagle, dog, in vivo, po, 10 mg/kg
[6] = female, Sprague Dawley, rat, in vivo, po, 45 mg/kg
[7] = male, Sprague Dawley, rat, in vivo, po, 45 mg/kg

| SMILES | MPZ disappeared ([1]; human liver S9 1 mg/mL, 2.5 μM MPZ, NADPH, 60-minute incubation) | AUC(0-inf) (Dog PK study; [5]) [ng·h/mL] | Tmax (Dog PK study; [5]) [min] | metabolite production in HKM [2] | metabolite production in HKM ([2]; listed as metopimazine) | metabolism of MPZ by recombinant FMO enzymes [3] | MPZ remaining ([4]; human, microsomes, 1 h, 1 μM, pH 7.4) [%] | Peak Area at Time 0 [4] | Peak Area at Time 90 min [4] | AUCinf (Rat PK study; [6]) [ng·h/mL] | Cmax (Rat PK study; [6]) [ng/mL] | Tmax (Rat PK study; [6]) [h] | AUCinf (Rat PK study; [7]) [ng·h/mL] | Cmax (Rat PK study; [7]) [ng/mL] | metabolites formed ([1]; human liver S9, 60-minute incubation) | MPZA metabolite to parent ratio compared with humans (Dog PK study; dogs) | AUC(0-inf) (Rat PK study; [6]) [ng·h/mL] | MPZA metabolite to parent ratio compared with humans (Rat PK study; rats) |
| --- | --- | --- | --- | --- | --- | --- | --- | --- | --- | --- | --- | --- | --- | --- | --- | --- | --- | --- |
| CS(=O)(=O)c1ccc2c(c1)N(CCCN1CCC(C(N)=O)CC1)c1ccccc1S2 [MPZ, metopimazine] | approximately 30% | 3190 | 50 | did not produce any metabolites | No metabolites were produced under any condition | did not metabolize MPZ | 37.2 | 2373 | 715 | 13800 | 1730 | 4 | 8160 | 1080 |  |  |  |  |
| CS(=O)(=O)c1ccc2c(c1)N(CCCN1CCC(C(=O)O)CC1)c1ccccc1S2 [MPZA, metopimazine acid] |  | 1030 |  |  |  |  |  | 0 | 208 |  | 106 | 4 | 755 | 89 | formed | far lower in dogs | 944 | particularly lower in rats |

— patent US20240156832A1, “METHODS OF METABOLIZING METOPIMAZINE AND ITS SALTS” (Neurogastrx, Inc., priority 2020, published 2024)
